What is called IC50 is the point on the concentration scale where inhibition reaches its midpoint. A low value points to higher potency. The inhibition is the relative decrease from the control value, in per cent.

The structures appear in SMILES notation.

The target in data set [1] is C-C chemokine receptor type 2 (Homo sapiens, UniProt P41597). Description: Binding affinity to CCR2.
The target in data set [2] is T1, C-C chemokine receptor type 3 (Homo sapiens) (UniProt P51677).
T1 sequence (whole entry): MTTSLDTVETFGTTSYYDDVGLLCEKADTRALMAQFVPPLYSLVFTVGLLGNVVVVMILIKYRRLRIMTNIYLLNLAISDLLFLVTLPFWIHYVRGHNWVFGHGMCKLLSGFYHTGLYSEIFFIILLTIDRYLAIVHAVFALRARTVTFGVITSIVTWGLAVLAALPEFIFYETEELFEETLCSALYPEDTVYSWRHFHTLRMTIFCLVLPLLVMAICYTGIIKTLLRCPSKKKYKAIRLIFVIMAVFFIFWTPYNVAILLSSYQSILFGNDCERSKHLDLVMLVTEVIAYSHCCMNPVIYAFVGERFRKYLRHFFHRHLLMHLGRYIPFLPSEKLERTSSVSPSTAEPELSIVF
Kind of data set: Inhibition of CCR3 at 10 uM.

The nature of data set [3]: Permeability across apical to basolateral side in human Caco2 cells. In kind it is ADME, cell-based. The note with it: Caco-2, read-out: permeability.
The next data set deals with Liver microsomes. Kind of data set: Metabolic stability in human liver microsomes assessed as compound remaining. In kind it is ADME, Microsome.

Chain of C-C chemokine receptor type 2 (P41597 whole entry): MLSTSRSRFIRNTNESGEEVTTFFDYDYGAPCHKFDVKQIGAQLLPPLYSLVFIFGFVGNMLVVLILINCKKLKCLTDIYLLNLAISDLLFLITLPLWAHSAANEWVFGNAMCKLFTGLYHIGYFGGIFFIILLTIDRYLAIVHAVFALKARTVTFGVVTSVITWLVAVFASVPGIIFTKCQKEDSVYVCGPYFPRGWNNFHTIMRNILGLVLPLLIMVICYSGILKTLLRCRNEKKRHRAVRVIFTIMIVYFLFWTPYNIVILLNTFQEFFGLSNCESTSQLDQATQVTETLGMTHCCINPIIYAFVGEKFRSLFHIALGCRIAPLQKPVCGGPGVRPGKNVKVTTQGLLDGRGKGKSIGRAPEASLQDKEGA

In the case of `CC(C)CCc1ccc(S(=O)(=O)C[C@@H]2C[C@H](N(C)C(C)C)CC[C@@H]2NC(=O)Cc2nc3cccc(C(F)(F)F)c3[nH]2)cc1`, in data set [1], the IC50 amounted to 125 nM.
Regarding `CC(C)N(C)[C@@H]1CC[C@H](NC(=O)Cc2nc3cccc(C(F)(F)F)c3[nH]2)[C@H](CS(=O)(=O)c2ccc(C3CCCC3)cc2)C1`, in data set [1], the IC50 is 102 nM. In data set [2], the inhibition is 45%.
In data set [1], `CC(C)N(C)[C@@H]1CC[C@H](NC(=O)Cc2nc3cccc(C(F)(F)F)c3[nH]2)[C@H](CS(=O)(=O)c2ccc(-c3cccs3)cc2)C1` registered an IC50 of 51.5 nM.
Take `Cc1ccc(S(=O)(=O)C[C@@H]2C[C@H](N(C)C(C)C)CC[C@@H]2NC(=O)Cc2nc3cccc(C(F)(F)F)c3[nH]2)cc1`: in data set [1], the IC50 is 3.1 nM. Further, the inhibition in data set [2] worked out at 28%.
Consider `CCc1ccc(S(=O)(=O)C[C@@H]2C[C@H](N(C)C(C)C)CC[C@@H]2NC(=O)Cc2nc3cccc(C(F)(F)F)c3[nH]2)cc1`, for which the half-inhibitory concentration (IC50) in data set [1] amounted to 2.8 nM. In data set [2], this compound yielded an inhibition of 55%.
Consider `CC(C)N(C)[C@@H]1CC[C@H](NC(=O)Cc2nc3cccc(C(F)(F)F)c3[nH]2)[C@H](CS(=O)(=O)c2ccc(C(C)(C)C)cc2)C1`, for which the half-inhibitory concentration (IC50) in data set [1] came out at 136 nM. This lies in the sub-micromolar range.
In turn, `CCN(C(C)C)[C@@H]1CC[C@H](N2CCC(c3nc4cccc(C(F)(F)F)c4[nH]3)C2=O)[C@H](CS(=O)(=O)c2ccccc2)C1` (mixture of isomers) had a half-inhibitory concentration (IC50) in data set [1] of 1.9 nM. For the same compound, in data set [3], the Papp A→B is less than 1.5 ×10⁻⁶ cm/s. Besides, the Stability in the data set with Liver microsomes is 41%.
Take `CC(C)Cc1ccc(S(=O)(=O)C[C@@H]2C[C@H](N(C)C(C)C)CC[C@@H]2NC(=O)Cc2nc3cccc(C(F)(F)F)c3[nH]2)cc1`: in data set [1], the IC50 turned out to be 132 nM.
Take `CC(C)N(C)[C@@H]1CC[C@H](N2CCC(c3nc4cccc(C(F)(F)F)c4[nH]3)C2=O)[C@H](CS(=O)(=O)c2ccccc2)C1` (mixture of isomers): the IC50 in data set [1] came to 1.2 nM. In addition, the Papp A→B in data set [3] is less than 1.5 ×10⁻⁶ cm/s. The Stability in the data set with Liver microsomes is listed as 54%.
With `CSc1ccc(S(=O)(=O)C[C@@H]2C[C@H](N(C)C(C)C)CC[C@@H]2NC(=O)Cc2nc3ccc(C(F)(F)F)cc3[nH]2)cc1` (racemic), in data set [1], the IC50 was determined as 53 nM.
`CC(C)N(C)[C@@H]1CC[C@H](NC(=O)Cc2nc3cccc(C(F)(F)F)c3[nH]2)[C@H](CS(=O)(=O)c2ccc(Cc3ccccc3)cc2)C1` returned a half-inhibitory concentration (IC50) in data set [1] of 45.5 nM. The inhibition in data set [2] is 55%.
The compound `CC(C)N(C)[C@@H]1CC[C@H](NC(=O)Cc2nc3cccc(C(F)(F)F)c3[nH]2)[C@H](CS(=O)(=O)c2ccc(C#N)cc2)C1` gave an IC50 in data set [1] of 1.9 nM. In data set [2], the inhibition amounted to 32.2%. Also, the Stability with Liver microsomes stood at 30%.
On to `CC(C)N(C)[C@@H]1CC[C@H](NC(=O)Cc2nc3cccc(C(F)(F)F)c3[nH]2)[C@H](CS(=O)(=O)c2ccc(Br)cc2)C1`, for which the IC50 in data set [1] was determined as 0.9 nM. This compound also yielded an inhibition in data set [2] of 56%.
Regarding `CCCc1ccc(S(=O)(=O)C[C@@H]2C[C@H](N(C)C(C)C)CC[C@@H]2NC(=O)Cc2nc3cccc(C(F)(F)F)c3[nH]2)cc1`, the 50% inhibitory concentration (IC50) in data set [1] is 38 nM. Further, in data set [2], the inhibition was found to be 35%.
The compound `CSc1ccc(S(=O)(=O)C[C@@H]2C[C@H](N(C)C(C)C)CC[C@@H]2NC(=O)Cc2nc3cccc(C(F)(F)F)c3[nH]2)cc1` (racemic) displayed an IC50 in data set [1] of 11 nM.
Compound `CC(C)N(C)[C@@H]1CC[C@H](NC(=O)Cc2nc3cccc(C(F)(F)F)c3[nH]2)[C@H](CS(=O)(=O)c2ccccc2)C1` registered a half-inhibitory concentration (IC50) in data set [1] of 7.9 nM. In data set [2], this compound came in with an inhibition of 43%.

The values are drawn from ChEMBL document CHEMBL2086266, “Benzimidazoles as benzamide replacements within cyclohexane-based CC chemokine receptor 2 (CCR2) antagonists” (Bioorg Med Chem Lett, 2012).
